Experimental data from ChEMBL document CHEMBL1142046 (Bioorg Med Chem Lett, 2005).
Converted amounts (≈) assume the structure as drawn.

Key:
MRC5 [1] = test: Cytotoxic compound concentration to reduce neutral red uptake by 50% using MRC-5 cell line; assay type: functional, Homo sapiens
HEL = test: Compound concentration to reduce virus plague formation by 50% tested against human cytomegalovirus laboratory strains Davis using HEL cell line; assay type: functional, cell-based
Vero [2] = test: Compound concentration to reduce virus cytopathic effect by 50% tested against herpes simplex virus-1(KOS) using Vero cell line; assay type: functional, cell-based; conditions: Chlorocebus sabaeus
Vero [3] = test: Minimum cytotoxic compound concentration to induce microscopically detectable alteration of cell morphology, using Vero cell line; assay type: functional, Chlorocebus sabaeus
Vero [4] = test: Compound concentration to reduce virus cytopathic effect by 50% tested against herpes simplex […] using Vero cell line; assay type: functional, cell-based; conditions: Chlorocebus sabaeus
MRC5 [5] = test: Compound concentration to reduce virus plague formation by 50% tested against human cytomegalovirus laboratory strains P8 using MRC-5 cell line; assay type: functional, cell-based
MRC5 [6] = test: Compound concentration to reduce virus plague formation by 50% tested against human cytomegalovirus laboratory strains Ad169 using MRC-5 cell line; assay type: functional, cell-based

O=C1NCc2ccccc2OCCC/C=C/c2cncc3ccc1nc23
CC50% (MRC5 [1]): 0.2 µg/mL (≈ 0.579 µM) | IC50 (HEL): 3 ng/mL (≈ 0.00869 µM) | IC50 (Vero [2]): 0.098 µg/mL (≈ 0.284 µM) | minimum cytotoxic concentration (MCC) (Vero [3]): 25 µg/mL | IC50 (Vero [4]): 0.004 µg/mL (≈ 0.0116 µM)

Nc1nc2c(ncn2COC(CO)CO)c(=O)[nH]1 [GANCICLOVIR]
CC50% (MRC5 [1]): >1000 µg/mL | IC50 (HEL): 2700 ng/mL (≈ 10.6 µM) | IC50 (Vero [2]): 1.27 µg/mL (≈ 4.99 µM) | IC50 (MRC5 [5]): 1.2 µg/mL (≈ 4.7 µM) | minimum cytotoxic concentration (MCC) (Vero [3]): >100 µg/mL | IC50 (Vero [4]): 1.22 µg/mL (≈ 4.78 µM) | IC50 (MRC5 [6]): 2.2 µg/mL (≈ 8.62 µM)

Nc1ccn(C[C@@H](CO)OCP(=O)(O)O)c(=O)n1.O.O [CIDOFOVIR]
IC50 (Vero [2]): 3.94 µg/mL | minimum cytotoxic concentration (MCC) (Vero [3]): >100 µg/mL | IC50 (Vero [4]): 1.28 µg/mL

Cc1cncc2ccc(C(=O)NCc3ccccc3OC(C)C)nc12
CC50% (MRC5 [1]): 2.4 µg/mL (≈ 7.16 µM) | IC50 (MRC5 [5]): 0.13 µg/mL (≈ 0.388 µM) | IC50 (MRC5 [6]): 0.09 µg/mL (≈ 0.268 µM)

O=C1NCc2ccccc2OCC/C=C/c2cncc3ccc1nc23
CC50% (MRC5 [1]): 1.8 µg/mL (≈ 5.43 µM) | IC50 (HEL): < 1.5 ng/mL | IC50 (Vero [2]): 0.391 µg/mL (≈ 1.18 µM) | IC50 (MRC5 [5]): 0.0052 µg/mL (≈ 0.0157 µM) | minimum cytotoxic concentration (MCC) (Vero [3]): 6 µg/mL | IC50 (Vero [4]): 0.009 µg/mL (≈ 0.0272 µM) | IC50 (MRC5 [6]): 0.0006 µg/mL (≈ 0.00181 µM)
